Laboratory results reported in article PMC8881512 (Nature Communications, 2022).
Several values for one entry are separate records, joined by “and”; a condition that tells them apart may be missing. Equal values may be shown once.

Columns and labels:
JAK1 = target: T1, JAK1 (Homo sapiens, UniProt P23458); assay: Kinome profiling; assay type: biochemical; conditions: VT02956 (5 nM)
T1 construct: LATS1/LATS2 enzymes from Signalchem

[1] = test system: Phospho-YAP (Ser127) in 4T1 cells; assay: Cellular Phospho-YAP HTRF assay, 4T1; assay type: cell-based; conditions: for YAP phosphorylation: 4T1, Fig.5d
[2] = test system: Phospho-YAP (Ser127) in HEK293A cells; assay: Cellular Phospho-YAP HTRF assay, HEK293A; assay type: cell-based; conditions: for YAP phosphorylation: 293A, Fig.5d
Experimental: Compound inhibition of […] YAP phosphorylation were performed based on commercial Phospho-YAP (Ser127) kit (Cisbio). In brief, HEK293A cells at 80%-100% confluence was rinsed with PBS, digested in 0.25% Trypsin-EDTA and centrifuged at 1000 × g for 3 min. The cell pellet was resuspended with appropriate volume of serum-free medium, counted using automated cell counter (Invitrogen), adjusted to a working density of 2.9 × 10^6/ml and dispensed into 384-well small volume white plate (Greiner) at 12 μl/well (3.5 × 10^4 cells) using Thermo Multidrop Combi microplate dispenser. At the time of detection, 36 nl DMSO contain 3-fold serial diluted compounds ranging from 10,000 to 4.6 nM were added into designed wells by Eco system and incubated at 37 °C for 120 min. Cell were lysed by adding 4 μl lysis buffer (4x), and incubated for 45 min at room temperature under shaking. HTRF reaction was performed by adding 4 μl of premixed phospho-YAP Cryptate antibody/Phospho-YAP d2 antibody solution prepared in the detection buffer and incubate at room temperature overnight. […] The compound inhibition was calculated by the formula, inhibition % = ([…]) × 100/ (HPE−ZPE). HPE represent 100% effect and ZPE is 0% effect. The data processing procedures were similar as in vitro LATS kinase inhibition assay.

PRKX = target: T2, PRKX (Homo sapiens, UniProt P51817); assay: Kinome profiling; assay type: biochemical; conditions: VT02956 (5 nM), read-out: % enzymatic activity relative to DMSO controls
T2 construct: LATS1/LATS2 enzymes from Signalchem

CAMK2d = target: T3, CAMK2d (Homo sapiens, UniProt Q13557); assay: Kinome profiling; assay type: biochemical; conditions: VT02956 (5 nM), read-out: % enzymatic activity relative to DMSO controls
T3 construct: LATS1/LATS2 enzymes from Signalchem

FER = target: T4, FER (Homo sapiens, UniProt P16591); assay: Kinome profiling; assay type: biochemical; conditions: VT02956 (5 nM), read-out: % enzymatic activity relative to DMSO controls
T4 construct: LATS1/LATS2 enzymes from Signalchem

CDK9/cyclin T2 = target: T5, CDK9/cyclin T2 (Homo sapiens, UniProt P50750); assay: Kinome profiling; assay type: biochemical; conditions: VT02956 (5 nM), read-out: % enzymatic activity relative to DMSO controls
T5 construct: LATS1/LATS2 enzymes from Signalchem

p70S6K/RPS6KB1 = target: T6, p70S6K/RPS6KB1 (Homo sapiens, UniProt P23443); assay: Kinome profiling; assay type: biochemical; conditions: VT02956 (5 nM), read-out: % enzymatic activity relative to DMSO controls
T6 construct: LATS1/LATS2 enzymes from Signalchem

CDK9/cyclin T1 = target: T7, CDK9/cyclin T1 (Homo sapiens, UniProt P50750); assay: Kinome profiling; assay type: biochemical; conditions: VT02956 (5 nM), read-out: % enzymatic activity relative to DMSO controls
T7 construct: LATS1/LATS2 enzymes from Signalchem

MSK2/RPS6KA4 = target: T8, MSK2/RPS6KA4 (Homo sapiens, UniProt O75676); assay: Kinome profiling; assay type: biochemical; conditions: VT02956 (5 nM), read-out: % enzymatic activity relative to DMSO controls
T8 construct: LATS1/LATS2 enzymes from Signalchem

RSK1 = target: T9, RSK1 (Homo sapiens, UniProt Q15418); assay: Kinome profiling; assay type: biochemical; conditions: VT02956 (5 nM), read-out: % enzymatic activity relative to DMSO controls
T9 construct: LATS1/LATS2 enzymes from Signalchem

[3] = test system: ERα, YAP/TAZ phosphorylation in MCF-7 cells; assay: Immunoblot analysis, MCF-7 cells; assay type: cell-based, human; conditions: MCF-7; 0.1, 0.5 and 2 μM for 2 days; Fig. 5f
LATS2 = target: T10, LATS2 (Homo sapiens, UniProt Q9NRM7); assay: Kinome profiling; assay type: biochemical; conditions: VT02956 (5 nM)
T10 construct: purchased Signalchem
T10 sequence (Q9NRM7 1-1088): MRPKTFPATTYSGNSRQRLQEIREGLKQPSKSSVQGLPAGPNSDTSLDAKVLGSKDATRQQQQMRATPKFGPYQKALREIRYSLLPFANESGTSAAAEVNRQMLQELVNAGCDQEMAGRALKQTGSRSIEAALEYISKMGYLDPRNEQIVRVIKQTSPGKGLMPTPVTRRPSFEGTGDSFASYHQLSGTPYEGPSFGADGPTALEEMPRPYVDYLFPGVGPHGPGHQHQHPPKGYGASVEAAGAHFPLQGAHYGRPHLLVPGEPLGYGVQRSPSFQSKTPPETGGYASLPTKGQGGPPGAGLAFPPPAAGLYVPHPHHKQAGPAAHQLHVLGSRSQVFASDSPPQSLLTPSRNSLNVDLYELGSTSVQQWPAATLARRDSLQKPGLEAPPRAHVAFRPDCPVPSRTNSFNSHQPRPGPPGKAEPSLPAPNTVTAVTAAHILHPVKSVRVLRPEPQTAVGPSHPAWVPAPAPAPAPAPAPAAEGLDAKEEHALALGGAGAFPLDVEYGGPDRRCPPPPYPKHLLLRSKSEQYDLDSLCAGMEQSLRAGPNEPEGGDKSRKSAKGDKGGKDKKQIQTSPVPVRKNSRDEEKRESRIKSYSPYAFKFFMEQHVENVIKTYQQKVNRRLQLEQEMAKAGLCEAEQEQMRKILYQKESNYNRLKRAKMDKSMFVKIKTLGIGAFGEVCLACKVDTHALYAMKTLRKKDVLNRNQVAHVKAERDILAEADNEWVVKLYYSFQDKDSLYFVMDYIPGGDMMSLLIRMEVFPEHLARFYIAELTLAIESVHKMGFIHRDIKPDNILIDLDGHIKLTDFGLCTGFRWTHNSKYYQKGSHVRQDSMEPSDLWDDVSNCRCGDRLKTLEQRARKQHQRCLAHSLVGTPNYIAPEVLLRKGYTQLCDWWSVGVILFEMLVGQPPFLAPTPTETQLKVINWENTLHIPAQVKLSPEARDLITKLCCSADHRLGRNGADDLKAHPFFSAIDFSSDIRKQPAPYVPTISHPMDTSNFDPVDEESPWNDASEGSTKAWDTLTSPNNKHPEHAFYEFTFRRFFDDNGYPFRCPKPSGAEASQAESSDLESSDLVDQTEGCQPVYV

melanoma B16 cells = assay: Cell proliferation, B16; assay type: cell-based; conditions: 0.5 µM or 2 µM VT02956 for 4 days; Supplementary Fig. 8f
Experimental: Cell proliferation rates were determined by automated cell counter. In brief, cells were plated at density of 0.1 million cells per well in six-well plate. Cell numbers were counted by the indicated time point as stated in the figure legends.

T4 sequence (P16591 whole entry): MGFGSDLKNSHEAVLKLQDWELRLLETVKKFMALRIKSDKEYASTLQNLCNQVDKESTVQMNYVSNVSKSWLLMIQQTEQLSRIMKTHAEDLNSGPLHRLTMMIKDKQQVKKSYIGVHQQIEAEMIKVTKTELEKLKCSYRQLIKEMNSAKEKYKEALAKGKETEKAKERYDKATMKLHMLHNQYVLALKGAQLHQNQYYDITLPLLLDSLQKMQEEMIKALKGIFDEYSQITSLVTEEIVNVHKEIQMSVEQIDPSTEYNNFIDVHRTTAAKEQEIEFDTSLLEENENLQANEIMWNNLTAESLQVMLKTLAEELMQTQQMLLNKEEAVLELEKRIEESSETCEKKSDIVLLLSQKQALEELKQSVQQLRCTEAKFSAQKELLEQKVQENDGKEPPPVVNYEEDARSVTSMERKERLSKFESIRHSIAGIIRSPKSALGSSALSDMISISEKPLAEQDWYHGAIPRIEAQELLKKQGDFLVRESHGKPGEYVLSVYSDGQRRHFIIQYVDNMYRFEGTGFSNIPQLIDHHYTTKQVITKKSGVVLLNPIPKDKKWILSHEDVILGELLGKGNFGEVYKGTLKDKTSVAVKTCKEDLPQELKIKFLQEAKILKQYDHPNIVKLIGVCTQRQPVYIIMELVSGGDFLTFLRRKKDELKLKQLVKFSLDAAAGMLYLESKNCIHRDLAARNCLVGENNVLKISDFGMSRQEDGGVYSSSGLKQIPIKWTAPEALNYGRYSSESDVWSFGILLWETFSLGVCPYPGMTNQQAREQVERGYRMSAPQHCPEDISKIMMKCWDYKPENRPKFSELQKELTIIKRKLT
T6 sequence (P23443 whole entry): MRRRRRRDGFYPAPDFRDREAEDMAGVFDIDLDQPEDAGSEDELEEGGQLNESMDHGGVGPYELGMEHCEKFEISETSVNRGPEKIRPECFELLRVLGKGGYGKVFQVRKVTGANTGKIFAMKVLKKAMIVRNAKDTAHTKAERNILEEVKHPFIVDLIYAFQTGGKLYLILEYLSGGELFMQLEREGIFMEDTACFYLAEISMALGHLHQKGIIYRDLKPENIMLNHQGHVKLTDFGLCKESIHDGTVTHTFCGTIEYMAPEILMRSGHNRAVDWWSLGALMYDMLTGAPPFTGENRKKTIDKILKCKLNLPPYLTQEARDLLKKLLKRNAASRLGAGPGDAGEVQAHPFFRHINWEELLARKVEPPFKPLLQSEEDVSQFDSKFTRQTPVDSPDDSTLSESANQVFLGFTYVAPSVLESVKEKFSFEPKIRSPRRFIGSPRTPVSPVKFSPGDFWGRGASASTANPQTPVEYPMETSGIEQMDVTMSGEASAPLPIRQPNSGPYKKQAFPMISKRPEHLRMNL
T2 sequence (P51817 whole entry): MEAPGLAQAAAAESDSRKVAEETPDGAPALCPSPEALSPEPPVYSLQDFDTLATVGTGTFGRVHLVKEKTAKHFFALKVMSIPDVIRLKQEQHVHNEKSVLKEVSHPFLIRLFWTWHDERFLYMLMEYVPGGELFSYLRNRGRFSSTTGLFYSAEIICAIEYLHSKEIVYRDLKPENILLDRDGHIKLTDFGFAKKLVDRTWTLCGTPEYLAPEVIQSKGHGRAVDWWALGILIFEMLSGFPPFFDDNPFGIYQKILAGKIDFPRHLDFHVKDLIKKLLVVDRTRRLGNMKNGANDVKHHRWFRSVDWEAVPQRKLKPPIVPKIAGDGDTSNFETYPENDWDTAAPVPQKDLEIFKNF
T8 sequence (O75676 whole entry): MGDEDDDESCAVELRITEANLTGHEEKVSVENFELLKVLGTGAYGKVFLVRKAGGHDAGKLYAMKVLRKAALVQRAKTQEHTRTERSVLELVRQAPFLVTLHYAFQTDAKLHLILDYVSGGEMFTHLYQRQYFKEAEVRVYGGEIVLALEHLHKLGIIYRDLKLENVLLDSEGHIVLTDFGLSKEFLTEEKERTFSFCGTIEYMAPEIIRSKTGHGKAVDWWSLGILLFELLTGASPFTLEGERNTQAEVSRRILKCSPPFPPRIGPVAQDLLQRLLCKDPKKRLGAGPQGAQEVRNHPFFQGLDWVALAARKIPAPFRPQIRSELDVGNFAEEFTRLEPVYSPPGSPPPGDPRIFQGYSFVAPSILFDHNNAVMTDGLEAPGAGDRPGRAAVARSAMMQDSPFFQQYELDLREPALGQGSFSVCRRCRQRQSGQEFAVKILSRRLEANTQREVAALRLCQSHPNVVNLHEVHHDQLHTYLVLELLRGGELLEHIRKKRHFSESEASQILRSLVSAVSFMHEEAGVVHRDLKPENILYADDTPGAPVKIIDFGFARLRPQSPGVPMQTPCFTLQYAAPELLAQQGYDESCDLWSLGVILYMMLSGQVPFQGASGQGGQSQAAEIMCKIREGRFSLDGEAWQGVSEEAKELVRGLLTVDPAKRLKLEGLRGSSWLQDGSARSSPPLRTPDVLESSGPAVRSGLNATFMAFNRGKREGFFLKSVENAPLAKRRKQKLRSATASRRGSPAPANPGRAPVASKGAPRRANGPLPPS
T1 sequence (P23458 whole entry): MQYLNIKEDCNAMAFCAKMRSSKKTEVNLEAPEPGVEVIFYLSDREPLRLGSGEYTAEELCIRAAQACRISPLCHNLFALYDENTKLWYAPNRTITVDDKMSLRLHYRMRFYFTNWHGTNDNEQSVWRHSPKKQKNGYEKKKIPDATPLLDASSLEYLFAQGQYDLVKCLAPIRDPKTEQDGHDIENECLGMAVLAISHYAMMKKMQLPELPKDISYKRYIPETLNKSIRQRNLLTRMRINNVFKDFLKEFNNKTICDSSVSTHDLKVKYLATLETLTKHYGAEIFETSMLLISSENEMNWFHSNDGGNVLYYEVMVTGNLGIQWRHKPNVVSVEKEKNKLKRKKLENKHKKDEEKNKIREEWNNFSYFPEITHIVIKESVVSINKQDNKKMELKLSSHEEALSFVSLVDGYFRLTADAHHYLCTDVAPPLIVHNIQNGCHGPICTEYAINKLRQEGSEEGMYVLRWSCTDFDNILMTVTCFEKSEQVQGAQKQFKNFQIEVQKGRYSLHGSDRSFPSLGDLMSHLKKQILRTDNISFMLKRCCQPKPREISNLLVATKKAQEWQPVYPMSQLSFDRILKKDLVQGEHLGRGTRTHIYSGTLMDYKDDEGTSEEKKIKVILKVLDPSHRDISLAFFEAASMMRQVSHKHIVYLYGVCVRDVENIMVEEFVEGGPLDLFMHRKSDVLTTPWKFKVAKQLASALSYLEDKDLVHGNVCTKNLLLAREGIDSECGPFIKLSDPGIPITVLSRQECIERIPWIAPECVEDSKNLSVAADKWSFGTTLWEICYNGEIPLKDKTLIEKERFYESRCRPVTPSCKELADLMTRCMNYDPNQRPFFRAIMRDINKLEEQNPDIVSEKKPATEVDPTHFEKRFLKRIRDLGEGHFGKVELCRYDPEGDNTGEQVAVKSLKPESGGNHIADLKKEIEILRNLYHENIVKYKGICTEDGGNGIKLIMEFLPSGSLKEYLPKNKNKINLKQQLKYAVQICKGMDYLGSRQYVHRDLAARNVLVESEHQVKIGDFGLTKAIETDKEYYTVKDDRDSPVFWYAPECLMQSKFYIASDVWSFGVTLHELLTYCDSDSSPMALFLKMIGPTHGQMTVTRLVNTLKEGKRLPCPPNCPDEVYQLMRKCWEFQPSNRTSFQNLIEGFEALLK
T9 sequence (Q15418 whole entry): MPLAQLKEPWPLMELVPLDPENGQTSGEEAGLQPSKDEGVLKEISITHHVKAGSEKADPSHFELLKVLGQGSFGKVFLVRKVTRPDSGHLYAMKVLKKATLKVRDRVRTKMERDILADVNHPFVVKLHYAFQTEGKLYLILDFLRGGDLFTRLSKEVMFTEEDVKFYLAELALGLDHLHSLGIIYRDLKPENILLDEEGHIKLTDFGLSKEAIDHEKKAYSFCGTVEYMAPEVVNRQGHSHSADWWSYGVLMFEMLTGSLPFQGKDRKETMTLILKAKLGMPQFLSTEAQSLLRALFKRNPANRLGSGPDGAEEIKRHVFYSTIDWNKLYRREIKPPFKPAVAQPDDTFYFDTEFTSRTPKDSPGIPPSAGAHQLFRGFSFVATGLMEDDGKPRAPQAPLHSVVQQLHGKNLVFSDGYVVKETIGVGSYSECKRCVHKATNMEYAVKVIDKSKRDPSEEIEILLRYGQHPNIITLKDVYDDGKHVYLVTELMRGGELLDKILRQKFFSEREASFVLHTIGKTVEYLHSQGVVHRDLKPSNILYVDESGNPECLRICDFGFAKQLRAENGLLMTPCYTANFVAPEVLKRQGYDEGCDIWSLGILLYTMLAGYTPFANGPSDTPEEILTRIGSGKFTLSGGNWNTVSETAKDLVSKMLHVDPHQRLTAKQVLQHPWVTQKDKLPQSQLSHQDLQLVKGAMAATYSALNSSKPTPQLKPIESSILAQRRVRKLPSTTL
T3 sequence (Q13557 whole entry): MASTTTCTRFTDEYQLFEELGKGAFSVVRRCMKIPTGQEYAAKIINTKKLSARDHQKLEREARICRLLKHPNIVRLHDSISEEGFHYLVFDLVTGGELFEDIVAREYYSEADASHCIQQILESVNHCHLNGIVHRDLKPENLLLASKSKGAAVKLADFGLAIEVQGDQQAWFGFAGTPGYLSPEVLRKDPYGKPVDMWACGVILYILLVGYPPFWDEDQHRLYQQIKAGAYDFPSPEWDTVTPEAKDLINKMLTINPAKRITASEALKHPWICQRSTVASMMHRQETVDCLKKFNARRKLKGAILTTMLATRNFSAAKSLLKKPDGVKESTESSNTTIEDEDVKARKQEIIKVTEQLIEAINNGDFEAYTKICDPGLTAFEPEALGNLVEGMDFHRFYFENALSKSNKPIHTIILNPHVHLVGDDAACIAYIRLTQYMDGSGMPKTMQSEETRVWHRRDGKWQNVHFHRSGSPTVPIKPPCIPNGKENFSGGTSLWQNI

In the case of `NCC1CCN(c2nc(-c3ccncc3)nc3c(C#CCO)cccc23)CC1` [VT02956], the “% enzymatic activity relative to DMSO controls” value (JAK1) is reported as 82%, the YAP phosphorylation ([1]; Conc. 0.00457247 (µM)) is reported as 95.8709 and 110.479 and the YAP phosphorylation ([1]; Conc. 0.0137174 (µM)) is reported as 110.398 and 92.919. The YAP phosphorylation ([1]; Conc. 0.0411523 (µM)) was 99.5656 and 109.183, the YAP phosphorylation ([1]; Conc. 0.123457 (µM)) was 90.8642 and 77.798 and the YAP phosphorylation ([1]; Conc. 0.37037 (µM)) was 55.9969 and 62.3937. For the same compound, the IC50 ([1]; Mus musculus, 4T1 cells, read-out: YAP phosphorylation IC50) was 430 nM, the YAP phosphorylation ([2]; Conc. 0.00457247 (µM)) was 88.3714 and 102.283 and the YAP phosphorylation ([2]; Conc. 0.0137174 (µM)) was 105.168 and 111.221. For the same compound, the YAP phosphorylation ([2]; Conc. 0.0411523 (µM)) was 96.441 and 81.638, the YAP phosphorylation ([2]; Conc. 0.123457 (µM)) was 73.179 and 42.0107 and the YAP phosphorylation ([2]; Conc. 0.37037 (µM)) was 20.9423 and 23.4127. The YAP phosphorylation ([2]; Conc. 1.11111 (µM)) was 9.018 and 5.767, the IC50 ([2]; HEK293-A, 2 h, HEK293A cells, 120 min, read-out: YAP phosphorylation IC50) was 160 nM and the remaining activity at 0.005 µM (PRKX) was 3%. It also gave a remaining activity at 0.005 µM (CAMK2d) of 77%, a remaining activity at 0.005 µM (FER) of 78% and a remaining activity at 0.005 µM (CDK9/cyclin T2) of 74%. The remaining activity at 0.005 µM (p70S6K/RPS6KB1) was 38%, the remaining activity at 0.005 µM (CDK9/cyclin T1) was 80% and the remaining activity at 0.005 µM (MSK2/RPS6KA4) was 78%. For the same compound, the remaining activity at 0.005 µM (RSK1) was 86%, the “YAP/TAZ dephosphorylation and ERα reduction (immunoblot)” value [3] was “dose-dependently induces YAP/TAZ dephosphorylation and ERα reduction” and the “% enzymatic activity relative to DMSO controls” value (LATS2) was 34%. For the same compound, the “growth of ER negative melanoma B16 cells” value (melanoma B16 cells) was “had little effect”.
